Values of other authors, collected in PMC9516332 (Frontiers in Oncology, 2022).
Like-named read-outs stand apart in the source and are kept apart here.

Assays:
Details in all cases: cited from earlier work
[1] = target: T1, panel of 255 wild-type kinases (Homo sapiens, UniProt Q9NWZ3)
T1 sequence (Q9NWZ3 1-460): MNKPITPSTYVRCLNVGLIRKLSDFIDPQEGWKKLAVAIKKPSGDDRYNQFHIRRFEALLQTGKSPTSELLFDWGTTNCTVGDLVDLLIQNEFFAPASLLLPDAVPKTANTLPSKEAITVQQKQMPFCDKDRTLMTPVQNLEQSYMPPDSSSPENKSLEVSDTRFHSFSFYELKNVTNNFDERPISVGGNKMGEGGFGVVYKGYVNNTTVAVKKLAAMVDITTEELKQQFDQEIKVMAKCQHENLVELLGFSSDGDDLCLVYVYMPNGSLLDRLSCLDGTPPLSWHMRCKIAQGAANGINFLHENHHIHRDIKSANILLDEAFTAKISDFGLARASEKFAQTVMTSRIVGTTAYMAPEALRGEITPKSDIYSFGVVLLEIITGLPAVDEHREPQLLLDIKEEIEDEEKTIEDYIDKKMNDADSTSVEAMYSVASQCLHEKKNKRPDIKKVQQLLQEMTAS

[2] = target: panel of 255 wild-type kinases (Homo sapiens, UniProt P53779)
[3] = target: panel of 255 wild-type kinases (Homo sapiens, UniProt Q04912)
[4] = target: panel of 255 wild-type kinases (Homo sapiens, UniProt Q9P0L2)
[5] = target: T2, panel of 255 wild-type kinases (Homo sapiens, UniProt Q92630)
T2 sequence (Q92630 1-601): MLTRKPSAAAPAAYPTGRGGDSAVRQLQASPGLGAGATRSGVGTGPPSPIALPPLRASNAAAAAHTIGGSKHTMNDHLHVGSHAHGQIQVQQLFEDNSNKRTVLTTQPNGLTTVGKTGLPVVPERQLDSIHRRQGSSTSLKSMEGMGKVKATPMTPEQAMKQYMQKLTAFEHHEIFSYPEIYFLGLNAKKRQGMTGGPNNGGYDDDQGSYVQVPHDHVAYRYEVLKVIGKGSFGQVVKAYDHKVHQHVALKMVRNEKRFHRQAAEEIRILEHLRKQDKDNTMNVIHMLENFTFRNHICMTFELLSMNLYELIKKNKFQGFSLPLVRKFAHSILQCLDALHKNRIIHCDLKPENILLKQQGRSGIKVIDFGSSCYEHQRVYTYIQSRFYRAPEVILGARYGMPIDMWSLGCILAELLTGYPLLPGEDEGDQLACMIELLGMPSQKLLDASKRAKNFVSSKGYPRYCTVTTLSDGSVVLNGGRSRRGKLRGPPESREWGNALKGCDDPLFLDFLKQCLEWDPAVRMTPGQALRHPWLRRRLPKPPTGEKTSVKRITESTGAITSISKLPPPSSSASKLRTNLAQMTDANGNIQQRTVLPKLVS

[6] = target: panel of 255 wild-type kinases (Homo sapiens, UniProt P35968)
[7] = target: panel of 255 wild-type kinases (Homo sapiens, UniProt P49760)
[8] = target: T3, panel of 255 wild-type kinases (Homo sapiens, UniProt Q9HBY8)
T3 sequence (Q9HBY8 1-367): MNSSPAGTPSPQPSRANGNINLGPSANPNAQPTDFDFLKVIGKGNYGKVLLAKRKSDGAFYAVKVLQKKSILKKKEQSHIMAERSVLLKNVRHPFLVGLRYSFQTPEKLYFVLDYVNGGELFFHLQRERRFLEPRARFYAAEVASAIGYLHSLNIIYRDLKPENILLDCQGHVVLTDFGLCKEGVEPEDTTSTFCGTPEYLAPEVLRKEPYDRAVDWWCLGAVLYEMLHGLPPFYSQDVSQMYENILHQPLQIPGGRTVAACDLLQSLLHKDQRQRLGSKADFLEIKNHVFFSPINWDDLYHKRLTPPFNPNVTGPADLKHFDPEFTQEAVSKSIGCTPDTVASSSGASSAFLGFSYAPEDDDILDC

[9] = target: T4, panel of 255 wild-type kinases (Homo sapiens, UniProt P51955)
T4 sequence (P51955 1-445): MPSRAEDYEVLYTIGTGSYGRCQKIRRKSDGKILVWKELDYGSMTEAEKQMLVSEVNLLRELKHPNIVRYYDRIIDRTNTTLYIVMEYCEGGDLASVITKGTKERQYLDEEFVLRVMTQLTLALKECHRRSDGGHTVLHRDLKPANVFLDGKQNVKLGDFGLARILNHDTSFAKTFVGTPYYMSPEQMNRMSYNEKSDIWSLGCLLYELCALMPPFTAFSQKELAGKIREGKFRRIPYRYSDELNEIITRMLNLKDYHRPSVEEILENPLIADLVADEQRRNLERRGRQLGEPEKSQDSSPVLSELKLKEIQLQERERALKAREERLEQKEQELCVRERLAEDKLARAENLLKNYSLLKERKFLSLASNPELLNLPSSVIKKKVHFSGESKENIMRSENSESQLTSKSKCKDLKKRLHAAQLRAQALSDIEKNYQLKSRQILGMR

[10] = kinase IRAK4, 1 µmol/L single concentration, ref DOI: 10.1158/1535-7163.MCT-18-0877
[11] = kinase JNK3, 1 µmol/L single concentration, ref DOI: 10.1158/1535-7163.MCT-18-0877
[12] = kinase RON, 1 µmol/L single concentration, ref DOI: 10.1158/1535-7163.MCT-18-0877
[13] = MARK1, 1 µmol/L single concentration, ref DOI: 10.1158/1535-7163.MCT-18-0877
[14] = kinase DYRK2, 1 µmol/L single concentration, ref DOI: 10.1158/1535-7163.MCT-18-0877
[15] = kinase KDR, 1 µmol/L single concentration, ref DOI: 10.1158/1535-7163.MCT-18-0877
[16] = kinase CLK2, 1 µmol/L single concentration, ref DOI: 10.1158/1535-7163.MCT-18-0877
[17] = kinase SGK2, 1 µmol/L single concentration, ref DOI: 10.1158/1535-7163.MCT-18-0877
[18] = NEK2, 1 µmol/L single concentration, ref DOI: 10.1158/1535-7163.MCT-18-0877
[19] = kinase JNK3, 1 µmol/L single concentration, ref DOI: 10.1371/journal.pone.0092146
[20] = MARK1, 1 µmol/L single concentration, ref DOI: 10.1371/journal.pone.0092146
[21] = kinase DYRK2, 1 µmol/L single concentration, ref DOI: 10.1371/journal.pone.0092146
[22] = kinase CLK2, 1 µmol/L single concentration, ref DOI: 10.1371/journal.pone.0092146
[23] = kinase SGK2, 1 µmol/L single concentration, ref DOI: 10.1371/journal.pone.0092146

CC#CC(=O)N1CCC[C@H]1c1nc(-c2ccc(C(=O)Nc3ccccn3)cc2)c2c(N)nccn12 [acalabrutinib]
%-inhibition at 1 µmol/L, IRAK4 [1, 10]: -6.55% | %-inhibition at 1 µmol/L, JNK3 [2, 11]: -0.893% | %-inhibition at 1 µmol/L, RON [3, 12]: 8% | %-inhibition, MARK1 [4, 13]: -3.49% | %-inhibition at 1 µmol/L, DYRK2 [5, 14]: -16% | %-inhibition at 1 µmol/L, KDR [6, 15]: 7% | %-inhibition at 1 µmol/L, CLK2 [7, 16]: -7% | %-inhibition at 1 µmol/L, SGK2 [8, 17]: -19% | %-inhibition, NEK2 [9, 18]: -6.35%

CCc1cc2c(cc1N1CCC(N3CCOCC3)CC1)C(C)(C)c1[nH]c3cc(C#N)ccc3c1C2=O [alectinib]
%-inhibition at 1 µmol/L, IRAK4 [1, 10]: 19% | %-inhibition at 1 µmol/L, JNK3 [2, 11]: -0.533% | %-inhibition at 1 µmol/L, RON [3, 12]: 10% | %-inhibition, MARK1 [4, 13]: 8% | %-inhibition at 1 µmol/L, DYRK2 [5, 14]: 6% | %-inhibition at 1 µmol/L, KDR [6, 15]: 18% | %-inhibition at 1 µmol/L, CLK2 [7, 16]: 14% | %-inhibition at 1 µmol/L, SGK2 [8, 17]: -5% | %-inhibition, NEK2 [9, 18]: 3.37%

COc1cc(N2CCC(N3CCN(C)CC3)CC2)ccc1Nc1ncc(Cl)c(Nc2ccccc2P(C)(C)=O)n1 [brigatinib]
%-inhibition at 1 µmol/L, IRAK4 [1]: 46% | %-inhibition at 1 µmol/L, JNK3 [2]: 52% | %-inhibition at 1 µmol/L, RON [3]: 18% | %-inhibition, MARK1 [4]: 96% | %-inhibition at 1 µmol/L, DYRK2 [5]: 29% | %-inhibition at 1 µmol/L, KDR [6]: 86% | %-inhibition at 1 µmol/L, CLK2 [7]: 91% | %-inhibition at 1 µmol/L, SGK2 [8]: -8% | %-inhibition, NEK2 [9]: 5.7%

Cc1cc(Nc2ncc(Cl)c(Nc3ccccc3S(=O)(=O)C(C)C)n2)c(OC(C)C)cc1C1CCNCC1 [ceritinib]
%-inhibition at 1 µmol/L, IRAK4 [1, 10]: 1.3% | %-inhibition at 1 µmol/L, JNK3 [2, 11]: 16% | %-inhibition at 1 µmol/L, RON [3, 12]: 9% | %-inhibition, MARK1 [4, 13]: 8.55% | %-inhibition at 1 µmol/L, DYRK2 [5, 14]: 6.41% | %-inhibition at 1 µmol/L, KDR [6, 15]: 58% | %-inhibition at 1 µmol/L, CLK2 [7, 16]: 99% | %-inhibition at 1 µmol/L, SGK2 [8, 17]: -5.59% | %-inhibition, NEK2 [9, 18]: 2%

O=C(c1ccc(F)c(F)c1Nc1ccc(I)cc1F)N1CC(O)([C@@H]2CCCCN2)C1 [cobimetinib]
%-inhibition at 1 µmol/L, IRAK4 [1, 10]: -4.31% | %-inhibition at 1 µmol/L, JNK3 [2, 11]: -0.412% | %-inhibition at 1 µmol/L, RON [3, 12]: -9% | %-inhibition, MARK1 [4, 13]: -5% | %-inhibition at 1 µmol/L, DYRK2 [5, 14]: -2.74% | %-inhibition at 1 µmol/L, KDR [6, 15]: 13% | %-inhibition at 1 µmol/L, CLK2 [7, 16]: 0.147% | %-inhibition at 1 µmol/L, SGK2 [8, 17]: 7% | %-inhibition, NEK2 [9, 18]: 6.62%

C[C@@H](Oc1cc(-c2cnn(C3CCNCC3)c2)cnc1N)c1c(Cl)ccc(F)c1Cl [crizotinib]
%-inhibition at 1 µmol/L, IRAK4 ([1]; kinase IRAK4, 1 µmol/L single concentration, ref DOI: 10.1371/journal.pone.0092146): 8% | %-inhibition at 1 µmol/L, JNK3 [2, 19]: -1.87% | %-inhibition, MARK1 [4, 20]: 27% | %-inhibition at 1 µmol/L, DYRK2 [5, 21]: 10% | %-inhibition at 1 µmol/L, CLK2 [7, 22]: -6% | %-inhibition at 1 µmol/L, SGK2 [8, 23]: -2.31% | %-inhibition, NEK2 ([9]; NEK2, 1 µmol/L single concentration, ref DOI: 10.1371/journal.pone.0092146): -2.69%

CC(C)(C)c1nc(-c2cccc(NS(=O)(=O)c3c(F)cccc3F)c2F)c(-c2ccnc(N)n2)s1 [dabrafenib]
%-inhibition at 1 µmol/L, JNK3 [2, 19]: 5.59% | %-inhibition at 1 µmol/L, RON ([3]; kinase RON, 1 µmol/L single concentration, ref DOI: 10.1371/journal.pone.0092146): 37% | %-inhibition, MARK1 [4, 20]: -15% | %-inhibition at 1 µmol/L, DYRK2 [5, 21]: 6% | %-inhibition at 1 µmol/L, CLK2 [7, 22]: 0.875% | %-inhibition at 1 µmol/L, SGK2 [8, 23]: -7.58%

C=CC(=O)N1CCC[C@@H](n2nc(-c3ccc(Oc4ccccc4)cc3)c3c(N)ncnc32)C1 [ibrutinib]
%-inhibition at 1 µmol/L, IRAK4 [1, 10]: -5% | %-inhibition at 1 µmol/L, JNK3 [2, 11]: 1% | %-inhibition at 1 µmol/L, RON [3, 12]: 7% | %-inhibition, MARK1 [4, 13]: 2.46% | %-inhibition at 1 µmol/L, DYRK2 [5, 14]: -1.83% | %-inhibition at 1 µmol/L, KDR [6, 15]: 84% | %-inhibition, NEK2 [9, 18]: 6.64%

CO[C@@H]1[C@H](N(C)C(=O)c2ccccc2)C[C@H]2O[C@]1(C)n1c3ccccc3c3c4c(c5c6ccccc6n2c5c31)C(=O)NC4 [midostaurin]
%-inhibition at 1 µmol/L, IRAK4 [1, 10]: 27% | %-inhibition at 1 µmol/L, RON [3, 12]: 22% | %-inhibition at 1 µmol/L, SGK2 [8, 17]: -0.775% | %-inhibition, NEK2 [9, 18]: 0.207%

C=CC(=O)Nc1cc(Nc2nccc(-c3cn(C)c4ccccc34)n2)c(OC)cc1N(C)CCN(C)C [osimertinib]
%-inhibition at 1 µmol/L, IRAK4 [1, 10]: -2.76% | %-inhibition at 1 µmol/L, JNK3 [2, 11]: 1.89% | %-inhibition at 1 µmol/L, RON [3, 12]: 5.69% | %-inhibition, MARK1 [4, 13]: 19% | %-inhibition at 1 µmol/L, DYRK2 [5, 14]: 45% | %-inhibition at 1 µmol/L, KDR [6, 15]: 46% | %-inhibition at 1 µmol/L, CLK2 [7, 16]: 38% | %-inhibition at 1 µmol/L, SGK2 [8, 17]: 26% | %-inhibition, NEK2 [9, 18]: 8%
